This is an account of results in ChEMBL document CHEMBL1127340, “A new approach to the design of sigma-2-selective ligands: synthesis and evaluation of N-[2-(3,4-dichlorophenyl)ethyl]-N-methyl-2-(1- pyrrolidinyl)ethylamine-related polyamines at sigma-1 and sigma-2 receptor subtypes” (J Med Chem, 1994).

For the assay, the target named is Sigma 2 receptor. The assay is described as follows: Binding affinity towards sigma 2 receptor was determined in rat liver membrane using [3H]DTG as radioligand in presence of dextrallorphan. The class given is cell membranes.
One may read the Ki as a dissociation constant, usually derived from enzyme kinetics or from competition with a known ligand. On to `CN(CCCN(C)CCc1ccc(Cl)c(Cl)c1)CCCN1CCCC1`, for which the Ki turned out to be 14.9 nM.

As to `CN(CCCCN(C)CCc1ccc(Cl)c(Cl)c1)CCCCN1CCCC1`, the Ki came to 115 nM. In the case of `CN(CCc1ccc(Cl)c(Cl)c1)CCN(C)CCN(C)CCN(C)CCN1CCCC1` it was 162 nM. For the compound `NCCNCCc1ccc(Cl)c(Cl)c1`, the Ki turned out to be 2360 nM. `Clc1ccc(CCNCCNCCN2CCCC2)cc1Cl`: the Ki was found to be 111 nM. Under `CN(CCCN1CCCC1)CCN(C)Cc1ccc(Cl)c(Cl)c1` stands 183 nM.

As for `CN(CCCCN1CCCC1)CCCN(C)CCc1ccc(Cl)c(Cl)c1`, the Ki is 152 nM. In the case of `CN(CCc1ccc(Cl)c(Cl)c1)CCN(C)CCN1CCCC1` it was 14.4 nM; in that of `Clc1ccc(CCN2CCCC2)cc1Cl`, 7700 nM. Under `NCCNCCNCCc1ccc(Cl)c(Cl)c1` stands 537 nM; under `NCCN(CCc1ccc(Cl)c(Cl)c1)CCN1CCCC1`, 135 nM.

For `CN(CCN(C)Cc1ccc(Cl)c(Cl)c1)CCN1CCCC1`, the Ki worked out at 12.1 nM.

For `CN(CCc1ccc(Cl)c(Cl)c1)CCN(C)CCN(C)CCN1CCCC1`, the Ki was 53.6 nM. `CN(CCCN(C)Cc1ccc(Cl)c(Cl)c1)CCN1CCCC1`: the Ki was 52.6 nM.

Regarding `CN(CCc1ccc(Cl)c(Cl)c1)CCN1CCCC1`, the Ki turned out to be 8.1 nM.
